Measured values as given in patent publication US20210380548A1, “Fused [1,2,4]Thiadiazine Derivatives Which Act as KAT Inhibitors of the MYST Family” (CTxT Pty Limited, priority 2017, published 2021).

Tests used:
[1] = molecular target: T1, TIP60-KAT5 (Homo sapiens, UniProt Q92993); assay: Acetyltransferase biochemical assay (AlphaScreen), KAT5; settings: Table 1 (TIP60-KAT5); 0.4 μM Acetyl coenzyme A, histone H4, 10 nM enzyme
T1 construct: encoding amino acid residues 2 to 461 (Uniprot Q92993-2) of human KAT5 isoform; made in house; host or cells: E. coli BL21 DE3
T1 sequence (Q92993 2-461 isoform Q92993-2): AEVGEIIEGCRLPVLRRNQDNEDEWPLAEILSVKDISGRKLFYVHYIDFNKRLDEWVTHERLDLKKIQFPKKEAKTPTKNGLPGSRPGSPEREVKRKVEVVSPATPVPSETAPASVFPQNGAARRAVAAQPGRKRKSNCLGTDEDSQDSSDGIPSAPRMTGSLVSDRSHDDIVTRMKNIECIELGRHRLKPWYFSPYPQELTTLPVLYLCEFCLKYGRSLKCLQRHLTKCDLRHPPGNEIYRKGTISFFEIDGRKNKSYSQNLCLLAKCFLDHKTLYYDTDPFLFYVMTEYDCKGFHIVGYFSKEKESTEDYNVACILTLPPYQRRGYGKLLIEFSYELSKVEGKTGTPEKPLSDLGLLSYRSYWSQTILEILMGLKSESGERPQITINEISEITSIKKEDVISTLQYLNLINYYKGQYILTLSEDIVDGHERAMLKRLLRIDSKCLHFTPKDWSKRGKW

[2] = molecular target: T2, MOZ-KAT6A (Homo sapiens, UniProt Q92794, A567V); assay: Acetyltransferase biochemical assay (AlphaScreen), KAT6A; settings: Table 2 (MOZ-KAT6A); 10 μM Acetyl coenzyme A, histone H3.1, 5 nM enzyme
T2 construct: encoding amino acid residues 507 to 778 (Uniprot Q92794-1) of human KAT6A; made in house; host or cells: E. coli BL21 DE3
T2 sequence (Q92794 507-778 A567V limits assumed): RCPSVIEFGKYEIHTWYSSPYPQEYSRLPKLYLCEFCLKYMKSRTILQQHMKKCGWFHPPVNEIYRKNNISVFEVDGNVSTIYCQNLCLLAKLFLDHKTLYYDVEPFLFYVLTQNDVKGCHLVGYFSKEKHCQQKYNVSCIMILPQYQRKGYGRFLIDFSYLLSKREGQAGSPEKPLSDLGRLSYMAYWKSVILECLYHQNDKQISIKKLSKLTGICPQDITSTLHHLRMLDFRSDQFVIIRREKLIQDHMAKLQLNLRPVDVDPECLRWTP

[3] = molecular target: T3, HBO-KAT7 (Homo sapiens, UniProt O95251); assay: Acetyltransferase biochemical assay (AlphaScreen), KAT7; settings: Table 3 (HBO-KAT7); 0.4 μM Acetyl coenzyme A, histone H3.1, 40 nM enzyme
T3 construct: encoding amino acid residues 325 to 611 (Uniprot 095251-1) of human KAT7; made in house; host or cells: E. coli BL21 DE3 RIL
T3 sequence (O95251 with tags, fused parts or gaps): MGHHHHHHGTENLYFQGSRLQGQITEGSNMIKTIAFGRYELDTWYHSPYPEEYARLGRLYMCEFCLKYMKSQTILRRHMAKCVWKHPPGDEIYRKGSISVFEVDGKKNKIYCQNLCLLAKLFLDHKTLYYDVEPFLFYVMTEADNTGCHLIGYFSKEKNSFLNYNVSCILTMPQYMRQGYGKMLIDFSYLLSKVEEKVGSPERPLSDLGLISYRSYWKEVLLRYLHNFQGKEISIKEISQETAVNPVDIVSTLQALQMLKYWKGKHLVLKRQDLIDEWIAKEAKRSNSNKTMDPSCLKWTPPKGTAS

[4] = molecular target: T2, MOZ-KAT6A; assay: Revised Acetyltransferase Biochemical Assay, KAT6A; settings: Table 8 (MOZ-KAT6A), 1 μM Acetyl coenzyme A
[5] = molecular target: T3, HBO-KAT7; assay: Revised Acetyltransferase Biochemical Assay, KAT7; settings: Table 9 (HBO-KAT7), 1 μM Acetyl coenzyme A
[6] = molecular target: T1, TIP60-KAT5; assay: Revised Acetyltransferase Biochemical Assay, KAT5; settings: 10 nM KAT5, 1 μM AcCoA, 100 nM histone H4, 90 min

Row | IC50 [1] [µM] | IC50 [2] [µM] | IC50 [3] [µM] | IC50 [4] [µM] | IC50 [5] [µM] | IC50 [6] [µM] | SMILES
1 | 12.4 | 0.0421 | 20.1 | – | – | – | CNC(=O)Cn1cc(-c2ccc3c(c2)S(=O)(=O)NC(C(=O)NCC(c2ccccc2)c2ncco2)=N3)cn1 (stereo not shown) [Example 9, 7-(1-(2-(Methylamino)-2-oxoethyl)-1H-pyrazol-4-yl)-N-(2-(oxazol-2-yl)-2-phenylethyl)-2H-benzo[e][1,2,4]thiadiazine-3-carboxamide 1,1-dioxide]
2 | 11.8 | 1.81 | 2.53 | – | – | – | Nc1ccc2c(c1)S(=O)(=O)NC(C(=O)NCC(c1ccccc1)c1ncco1)=N2 (stereo not shown) [Example 11, 7-Amino-N-(2-(oxazol-2-yl)-2-phenylethyl)-2H-benzo[e][1,2,4]thiadiazine-3-carboxamide 1,1-dioxide]
3 | 63.5 | 4.42 | 15.7 | – | – | – | O=C(NCCc1ccccc1Br)C1=Nc2ccccc2S(=O)(=O)N1 [Example 28, N-(2-Bromophenethyl)-2H-benzo[e][1,2,4]thiadiazine-3-carboxamide 1,1-dioxide]
4 | > 125 | 28.6 | 84.4 | – | – | – | O=C(NCCc1ccccc1O)C1=Nc2ccccc2S(=O)(=O)N1 [Example 29, N-(2-Hydroxyphenethyl)-2H-benzo[e][1,2,4]thiadiazine-3-carboxamide 1,1-dioxide]
5 | 15.1 | 8.23 | 5.84 | – | – | – | O=C(NCCc1ccccc1I)C1=Nc2ccccc2S(=O)(=O)N1 [Example 31, N-(2-Iodophenethyl)-2H-benzo[e][1,2,4]thiadiazine-3-carboxamide 1,1-dioxide]
6 | > 125 | 59.9 | 31.6 | – | – | – | N#Cc1ccccc1CCNC(=O)C1=Nc2ccccc2S(=O)(=O)N1 [Example 35, N-(2-Cyanophenethyl)-2H-benzo[e][1,2,4]thiadiazine-3-carboxamide 1,1-dioxide]
7 | > 125 | 7.67 | – | 1.68 | 3.13 | > 125 | CCOC(=O)NC(CNC(=O)C1=Nc2ccccc2S(=O)(=O)N1)c1ccccc1 (stereo not shown) [Example 49, Ethyl (2-(1,1-dioxido-2H-benzo[e][1,2,4]thiadiazine-3-carboxamido)-1-phenylethyl)carbamate]
8 | 57.9 | 8.87 | 4.01 | – | – | – | O=C(NCC(c1ccccc1)n1cccc1)C1=Nc2ccccc2S(=O)(=O)N1 (stereo not shown) [Example 54, N-(2-phenyl-2-(1H-pyrrol-1-yl)ethyl)-2H-benzo[e][1,2,4]thiadiazine-3-carboxamide 1,1-dioxide]
9 | 36.5 | 5.66 | 4.51 | – | – | – | O=C(NCC(c1ccccc1F)n1cccc1)C1=Nc2ccccc2S(=O)(=O)N1 (stereo not shown) [Example 55, N-(2-(2-fluorophenyl)-2-(1H-pyrrol-1-yl)ethyl)-2H-benzo[e][1,2,4]thiadiazine-3-carboxamide 1,1-dioxide]
10 | 87.8 | 35.4 | 29.5 | – | – | – | O=C(NCCc1ccccn1)C1=Nc2ccc(Br)cc2S(=O)(=O)N1 [Example 79]
11 | > 125 | 58.8 | 104 | – | – | – | O=C(NCCc1cccnc1)C1=Nc2ccc(Br)cc2S(=O)(=O)N1 [Example 80]
12 | 4.9 | 1.61 | – | 0.552 | 4.6 | 6.65 | O=C(NCCc1ccccc1F)C1=Nc2ccc(Br)cc2S(=O)(=O)N1 [Example 81]
13 | > 125 | 36.1 | 68.6 | – | – | – | O=C(NCC(c1ccccc1)c1ncco1)C1=Nc2cnccc2S(=O)(=O)N1 (stereo not shown) [Example 98]
14 | > 125 | 15.8 | 9.16 | – | – | – | O=C(NCC(c1ccccc1)c1ncco1)C1=Nc2ncccc2S(=O)(=O)N1 (stereo not shown) [Example 99]
15 | 40.5 | 41.7 | 112 | – | – | – | Nc1ccc(CCNC(=O)C2=Nc3ccc(I)cc3S(=O)(=O)N2)cc1 [Example 100]
16 | 27.1 | 10.6 | 60.2 | – | – | – | O=C(NCCc1cccc(O)c1)C1=Nc2ccc(I)cc2S(=O)(=O)N1 [Example 102]
